Experimental data taken from patent publication US11497793B2, “Compositions and methods for treating glioblastoma” (TEL HASHOMER MEDICAL RESEARCH INFRASTRUCTURE AND SERVICES …, priority 2018, dated 2022).
The star is where a group is joined. Tos = Cc1ccc(S(=O)(=O)*)cc1; CH2Cl = ClC*

What was measured:
[1] = tested on: CNS-1 glioma cell line; experiment: Glioma cell proliferation measured by XTT; format: cell-based, rat; conditions: CNS-1 cells, 72 hours, TMZ 500 μM, SIXAC 10 μM, alone or combined
Experimental: The following experiment tested the effect of the chemotherapeutic drug temozolomide (“TMZ”) in combination with the peptide conjugate Tosyl-ATLDPR-chloromethylketone (tosyl-SEQ ID NO: 3-CMK) on the proliferation of glioma cells. The peptide conjugate contains 6 amino acids from the N-terminus of PAR-1: ATLDPR (SEQ ID NO: 3), and is denoted herein as “SIXAC”.
In particular, CNS-1 glioma cell line (rat) was treated with either TMZ (500 μM), SIXAC (10 μM) or a combination of TMZ (500 μM) and SIXAC (10 μM) for 72 hours. Proliferation was measured by means of XTT in comparison to non-treated cells (control).

[2] = tested on: PAR-1; experiment: Western blot of PAR-1 level in glioma cells; format: cell-based, rat; conditions: CNS-1 cells, 24 h; TMZ 500 μM, SIXAC 10 μM, alone or combined; vs FCS-free medium with 0.2% DMSO
Experimental: (§1) More particularly, the expression of two proteins, PAR-1 and phosphorylated extracellular signal-regulated kinase (pERK), was examined in glioma cells incubated with TMZ, SIXAC or a combination of TMZ+SIXAC.
(§2) CNS-1 rat glioma cells were grown in Dulbecco's modified Eagle's medium (DMEM; Bet Haemek, Biological Industries, Israel) supplemented with 10% fetal bovine serum (Bet Haemek, Biological Industries, Israel) and 1% penicillin and streptomycin in a 5% CO2-humidified atmosphere.
(§3) CNS-1 cells were seeded and incubated for 24 h. Then the medium was replaced by FCS-free medium for additional 24 h. Next, the cells were treated for 24 h with SIXAC (10 μM), TMZ (500 μM), a combination of TMZ (500 μM) and SIXAC (10 μM) or a FCS-free medium (containing 0.2% DMSO) which was used as a control (n=4 for each treatment group). The cells were then washed with ice-cold PBS and lysed in RIPA buffer (containing in mM: 50 TRIS HCl pH 8, 150 NaCl, 1% NP-40, 0.5% sodium deoxycholate, and 0.1% SDS), a protease inhibitor cocktail (Merck Millipore 539134, 1:100), 0.1 mM sodium orthovanadate and 2 mM PMSF. The cells were scraped, collected and centrifuged (16,000 g×20 min) at 4° C. The supernatants were collected, and protein concentration was determined by means of a bicinchoninic acid (BCA) assay.

[3] = tested on: phosphorylated extracellular signal-regulated kinase (pERK); experiment: Western blot of pERK level in glioma cells; format: cell-based, rat; conditions: CNS-1 cells, 24 h; TMZ 500 μM, SIXAC 10 μM, alone or combined; vs FCS-free medium with 0.2% DMSO
Experimental: as §1, §2, §3

[4] = tested on: C6 rat glioma cells; experiment: Scratch (wound healing) assay of glioma cell migration; format: cell-based; conditions: 4 h of incubation, SIXAC 1 μM, TMZ 100 μM, alone or combined
Experimental: C6 rat glioma cells were grown in Dulbecco's modified Eagle's medium (DMEM; Bet Haemek, Biological Industries, Israel) supplemented with 10% fetal bovine serum (Bet Haemek, Biological Industries, Israel) and 1% penicillin and streptomycin in a 5% CO2-humidified atmosphere.
The effect of TMZ and SIXAC on the coordinated movement of C6 glioma cells was evaluated using a wound healing assay. The cells were seeded in 24-well plates at a density of 5×10^4 cells/well. Cells were cultured in FCS-free medium for 24 h. A wound was established by scraping using 10 μl pipette tip. Cells were washed twice with warm PBS and then fresh FCS-free medium was added, containing SIXAC (1 μM), TMZ (100 μM) or a combination of SIXAC and TMZ. Wells with FCS-free medium only or FCS-free medium+DMSO 0.2% were used as controls (marked as “control” and “control+DMSO”) Image acquisition of wound gap closure (%) was carried out following 4 h of incubation using a Nikon Eclipse microscope Images were analyzed using Fiji software.

[5] = tested on: CNS-1 brain tumor; experiment: Survival in an animal model of GBM (CNS-1 cells injected into parietal cortex, intratumoral osmotic pump); format: in vivo; conditions: rat GBM model; osmotic pump into tumor for 14 days; TMZ 2 mg/rat, SIXAC 6.9 μg/rat (20 μg/kg/day); monitored until Day 25
Experimental: CNS-1 cells ([…]) were injected using stereotactic methods into the parietal cortex of rats (n=20, 16 rats survived the surgery).
Five days later (Day 5) the brains of the rats that survived the surgery were examined by MRI and the tumors scored on a scale of 1-3. For each rat, a catheter was placed in the brain tumor and attached to an osmotic pump (Alzet®) releasing one of the following treatments ([…], for 14 days): TMZ 2 mg/rat (n=7), or TMZ 2 mg/rat and SIXAC 6.9 μg/rat (20 μg/kg/day) (n=7) (TMZ was dissolved in saline and 0.1M acetate buffer pH5) (50:50 v/v ratio).
The groups were monitored daily for survival until Day 25.

Compound | cell proliferation compared to non-treated cells (control) [1] | PAR1 expression [2] | pERK expression [3] | wound-closure percentage [4] | Median survival [5]
tosyl-Ala-Thr-Leu-Asp-Pro-Arg-chloromethylketone (Tos-ATLDPR-CH2Cl; SMILES Cc1ccc(S(=O)(=O)N[C@@H](C)C(=O)N[C@H](C(=O)N[C@@H](CC(C)C)C(=O)N[C@@H](CC(=O)O)C(=O)N2CCC[C@H]2C(=O)N[C@@H](CCCNC(=N)N)C(=O)CCl)[C@@H](C)O)cc1) [SIXAC, peptide conjugate containing 6 amino acids from the N-terminus of PAR-1 with tosyl and chloromethylketone moieties] | minor effect | did not cause any significant change | did not cause any significant change | significantly decrease | 
Cn1nnc2c(C(N)=O)ncn2c1=O [TMZ, temozolomide, reference compound] | no significant effect |  |  |  | 14 days
